Measured values: paper PMC8079033, “Design, synthesis, anticancer evaluation, and molecular modelling studies of novel tolmetin derivatives as potential VEGFR-2 inhibitors and apoptosis inducers” (Journal of Enzyme Inhibition and Medicinal Chemistry, 2021)

What was measured:
[1] = test system: 786-0; assay: NCI 60-cell line one-dose antiproliferative screen (SRB); type: cell-based; conditions: Homo sapiens, read-out: growth inhibition % (GI%)
Description: (§1) Anticancer activity screening of the newly synthesised compounds was measured in vitro utilising 60 different human tumour cell lines provided by US National Cancer Institute according to previously reported standard procedure[41–43] as follows: Cells are inoculated into 96-well microtiter plates in 100 ml. After cell inoculation, the microtiter plates are incubated at 37 °C, 5% CO2, 95% air, and 100% relative humidity for 24 h prior to addition of experimental compounds. After 24 h, two plates of each cell line are fixed in situ with TCA, to represent a measurement of the cell population for each cell line at the time of compound addition (Tz). Experimental compounds are solubilised in dimethyl sulfoxide at 400-fold the desired final maximum test concentration and stored frozen prior to use. At the time of compound addition, an aliquot of frozen concentrate is thawed and diluted to twice the desired final maximum test concentration with a complete medium containing […] gentamicin. Aliquots of […] of the compounds dilutions are added to the appropriate microtiter wells already containing 100 ml of medium, resulting in the required final compound concentration. Following compound addition, the plates are incubated for an additional 48 h at 37 °C, 5% CO2, 95% air, and 100% relative humidity. For adherent cells, the assay is terminated by the addition of cold trichloroacetic acid (TCA). Cells are fixed in situ by the gentle addition of 50 ml of cold 50% (w/v) TCA (final concentration, 10% TCA) and incubated for […] at 4 °C. The supernatant is discarded, and the plates are washed five times with tap water and air-dried. Sulforhodamine B (SRB) solution (100 ml) at 0.4% (w/v) in 1% acetic acid is added to each well, and plates are incubated for 10 min at room temperature. After staining, the unbound dye is removed by washing five times with 1% acetic acid and the plates are air-dried. The bound stain is subsequently solubilised with a 10 mM trizma base, and the absorbance is read on an automated plate reader at a wavelength of 515 nm. For suspension cells, the methodology is the same except that the assay is terminated by fixing settled cells at the bottom of the wells by gently adding 50 ml of 80% TCA (final concentration, 16% TCA). Using the absorbance measurements [time zero, (Tz), control growth, (C), and test growth in the presence of compound (Ti)], the percentage growth is calculated for each compound. The One-dose data are reported as a mean graph of the percent growth of treated cells. The reported number is growth relative to the no-compound control, and relative to the time zero number of cells. This allows the detection of both growth inhibition and lethality.
(§2) Fifteen newly synthesised compounds were tested for their in vitro antiproliferative activity by the National Cancer Institute (NCI), Maryland, USA[50], under the Developmental Therapeutic Program (DTP)[41]^,[43]^,[51]^,[52]. The tested compounds were evaluated at a concentration of 10 µM on a panel of 60 tumour cell lines representing leukaemia and non-small cell lung, colon, CNS, melanoma, ovarian, renal, prostate, and breast cancers. The antiproliferative activity was presented by the NCI as percent growth of the treated cells and is presented in Table 1 as growth inhibition percentage (GI%) achieved by the tested compounds.

[2] = test system: A498; assay: as above; type: cell-based; conditions: Homo sapiens, read-out: growth inhibition % (GI%)
Description: as §1, §2

[3] = test system: A549/ATCC; assay: as above; type: cell-based; conditions: Homo sapiens, read-out: growth inhibition % (GI%)
Description: as §1, §2

[4] = test system: ACHN; assay: as above; type: cell-based; conditions: Homo sapiens, read-out: growth inhibition % (GI%)
Description: as §1, §2

[5] = test system: CAKI-1; assay: as above; type: cell-based; conditions: Homo sapiens, read-out: growth inhibition % (GI%)
Description: as §1, §2

[6] = test system: EKVX; assay: as above; type: cell-based; conditions: Homo sapiens, read-out: growth inhibition % (GI%)
Description: as §1, §2

[7] = test system: HCT-116; assay: as above; type: cell-based; conditions: Homo sapiens, read-out: growth inhibition % (GI%)
Description: as §1, §2

[8] = test system: HCT-15; assay: as above; type: cell-based; conditions: Homo sapiens, read-out: growth inhibition % (GI%)
Description: as §1, §2

[9] = test system: HL-60 (TB); assay: as above; type: cell-based; conditions: Homo sapiens, read-out: growth inhibition % (GI%)
Description: as §1, §2

[10] = test system: HOP-62; assay: as above; type: cell-based; conditions: Homo sapiens, read-out: growth inhibition % (GI%)
Description: as §1, §2

[11] = test system: HOP-92; assay: as above; type: cell-based; conditions: Homo sapiens, read-out: growth inhibition % (GI%)
Description: as §1, §2

[12] = test system: HS 578 T; assay: as above; type: cell-based; conditions: Homo sapiens, read-out: growth inhibition % (GI%)
Description: as §1, §2

[13] = test system: IGROV1; assay: as above; type: cell-based; conditions: Homo sapiens, IGROV-1, read-out: growth inhibition % (GI%)
Description: as §1, §2

[14] = test system: K-562; assay: as above; type: cell-based; conditions: Homo sapiens, K562, read-out: growth inhibition % (GI%)
Description: as §1, §2

[15] = test system: KM12; assay: as above; type: cell-based; conditions: Homo sapiens, read-out: growth inhibition % (GI%)
Description: as §1, §2

[16] = test system: LOX IMVI; assay: as above; type: cell-based; conditions: Homo sapiens, read-out: growth inhibition % (GI%)
Description: as §1, §2

[17] = test system: MALME-3M; assay: as above; type: cell-based; conditions: Homo sapiens, read-out: growth inhibition % (GI%)
Description: as §1, §2

[18] = test system: MCF7; assay: as above; type: cell-based; conditions: Homo sapiens, read-out: growth inhibition % (GI%)
Description: as §1, §2

[19] = test system: MDA-MB-231/ATCC; assay: as above; type: cell-based; conditions: Homo sapiens, read-out: growth inhibition % (GI%)
Description: as §1, §2

[20] = test system: MOLT-4; assay: as above; type: cell-based; conditions: Homo sapiens, read-out: growth inhibition % (GI%)
Description: as §1, §2

[21] = test system: NCI-H226; assay: as above; type: cell-based; conditions: Homo sapiens, read-out: growth inhibition % (GI%)
Description: as §1, §2

[22] = test system: NCI-H23; assay: as above; type: cell-based; conditions: Homo sapiens, read-out: growth inhibition % (GI%)
Description: as §1, §2

[23] = test system: NCI-H460; assay: as above; type: cell-based; conditions: Homo sapiens, read-out: growth inhibition % (GI%)
Description: as §1, §2

[24] = test system: NCI-H522; assay: as above; type: cell-based; conditions: Homo sapiens, read-out: growth inhibition % (GI%)
Description: as §1, §2

[25] = test system: NCI/ADR-RES; assay: as above; type: cell-based; conditions: Homo sapiens, read-out: growth inhibition % (GI%)
Description: as §1, §2

[26] = test system: OVCAR-4; assay: as above; type: cell-based; conditions: Homo sapiens, read-out: growth inhibition % (GI%)
Description: as §1, §2

[27] = test system: OVCAR-5; assay: as above; type: cell-based; conditions: Homo sapiens, read-out: growth inhibition % (GI%)
Description: as §1, §2

[28] = test system: OVCAR-8; assay: as above; type: cell-based; conditions: Homo sapiens, read-out: growth inhibition % (GI%)
Description: as §1, §2

[29] = test system: PC-3; assay: as above; type: cell-based; conditions: Homo sapiens, read-out: growth inhibition % (GI%)
Description: as §1, §2

[30] = test system: RPMI-8226; assay: as above; type: cell-based; conditions: Homo sapiens, read-out: growth inhibition % (GI%)
Description: as §1, §2

[31] = test system: SF-268; assay: as above; type: cell-based; conditions: Homo sapiens, read-out: growth inhibition % (GI%)
Description: as §1, §2

[32] = test system: SF-295; assay: as above; type: cell-based; conditions: Homo sapiens, read-out: growth inhibition % (GI%)
Description: as §1, §2

[33] = test system: SF-539; assay: as above; type: cell-based; conditions: Homo sapiens, read-out: growth inhibition % (GI%)
Description: as §1, §2

[34] = test system: SK-MEL-5; assay: as above; type: cell-based; conditions: Homo sapiens, read-out: growth inhibition % (GI%)
Description: as §1, §2

[35] = test system: SK-OV-3; assay: as above; type: cell-based; conditions: Homo sapiens, read-out: growth inhibition % (GI%)
Description: as §1, §2

[36] = test system: SN 12 C; assay: as above; type: cell-based; conditions: Homo sapiens, SN12C, read-out: growth inhibition % (GI%)
Description: as §1, §2

[37] = test system: SNB-19; assay: as above; type: cell-based; conditions: Homo sapiens, read-out: growth inhibition % (GI%)
Description: as §1, §2

[38] = test system: SNB-75; assay: as above; type: cell-based; conditions: Homo sapiens, read-out: growth inhibition % (GI%)
Description: as §1, §2

[39] = test system: SR; assay: as above; type: cell-based; conditions: Homo sapiens, read-out: growth inhibition % (GI%)
Description: as §1, §2

[40] = test system: SW-620; assay: as above; type: cell-based; conditions: Homo sapiens, read-out: growth inhibition % (GI%)
Description: as §1, §2

[41] = test system: T-47D; assay: as above; type: cell-based; conditions: Homo sapiens, T47D, read-out: growth inhibition % (GI%)
Description: as §1, §2

[42] = test system: U251; assay: as above; type: cell-based; conditions: Homo sapiens, U-251, read-out: growth inhibition % (GI%)
Description: as §1, §2

[43] = test system: UACC-257; assay: as above; type: cell-based; conditions: Homo sapiens, read-out: growth inhibition % (GI%)
Description: as §1, §2

[44] = test system: UACC-62; assay: as above; type: cell-based; conditions: Homo sapiens, read-out: growth inhibition % (GI%)
Description: as §1, §2

[45] = test system: UO-31; assay: as above; type: cell-based; conditions: Homo sapiens, read-out: growth inhibition % (GI%)
Description: as §1, §2

Q: With `Cc1ccc(C(=O)c2ccc(CC(=O)NN=Cc3cc4ccccc4[nH]3)n2C)cc1` [Compound 5e, N′-((1H-Indol-2-yl)methylene)-2–(1-methyl-5–(4-methylbenzoyl)-1H-pyrrol-2-yl) acetohydrazide] as the compound, how does the inhibition at 10 µM [1] read?
A: < 10%

Q: What about the inhibition at 10 µM [2] of the same compound?
A: 10.9%

Q: What about the inhibition at 10 µM [3] of the same compound?
A: < 10%

Q: What about the inhibition at 10 µM [4] of the same compound?
A: < 10%

Q: What about the inhibition at 10 µM [5] of the same compound?
A: 15.8%

Q: What about the inhibition at 10 µM [6] of the same compound?
A: 25.7%

Q: And the inhibition at 10 µM [7]?
A: < 10%

Q: What about the inhibition at 10 µM [8] of the same compound?
A: 12.6%

Q: What about the inhibition at 10 µM [9] of the same compound?
A: < 10%

Q: And the inhibition at 10 µM [10]?
A: 24%

Q: What about the inhibition at 10 µM [11] of the same compound?
A: 10.3%

Q: What about the inhibition at 10 µM [12] of the same compound?
A: < 10%

Q: And the inhibition at 10 µM [13]?
A: 45.5%

Q: What about the inhibition at 10 µM [14] of the same compound?
A: < 10%

Q: What about the inhibition at 10 µM [15] of the same compound?
A: < 10%

Q: And the inhibition at 10 µM [16]?
A: 10.7%

Q: And the inhibition at 10 µM [17]?
A: < 10%

Q: And the inhibition at 10 µM [18]?
A: 22.1%

Q: And the inhibition at 10 µM [19]?
A: 20.5%

Q: What about the inhibition at 10 µM [20] of the same compound?
A: < 10%

Q: What about the inhibition at 10 µM [21] of the same compound?
A: 15.3%

Q: What about the inhibition at 10 µM [22] of the same compound?
A: 15.4%

Q: And the inhibition at 10 µM [23]?
A: < 10%

Q: What about the inhibition at 10 µM [24] of the same compound?
A: 18.9%

Q: What about the inhibition at 10 µM [25] of the same compound?
A: < 10%

Q: And the inhibition at 10 µM [26]?
A: 19.3%

Q: What about the inhibition at 10 µM [27] of the same compound?
A: < 10%

Q: And the inhibition at 10 µM [28]?
A: < 10%

Q: What about the inhibition at 10 µM [29] of the same compound?
A: 10.9%

Q: What about the inhibition at 10 µM [30] of the same compound?
A: < 10%

Q: And the inhibition at 10 µM [31]?
A: < 10%

Q: What about the inhibition at 10 µM [32] of the same compound?
A: < 10%

Q: What about the inhibition at 10 µM [33] of the same compound?
A: < 10%

Q: What about the inhibition at 10 µM [34] of the same compound?
A: < 10%

Q: And the inhibition at 10 µM [35]?
A: 12.1%

Q: What about the inhibition at 10 µM [36] of the same compound?
A: 10.5%

Q: And the inhibition at 10 µM [37]?
A: 17.3%

Q: What about the inhibition at 10 µM [38] of the same compound?
A: 15.3%

Q: What about the inhibition at 10 µM [39] of the same compound?
A: < 10%

Q: What about the inhibition at 10 µM [40] of the same compound?
A: < 10%

Q: And the inhibition at 10 µM [41]?
A: 29.4%

Q: What about the inhibition at 10 µM [42] of the same compound?
A: < 10%

Q: What about the inhibition at 10 µM [43] of the same compound?
A: < 10%

Q: What about the inhibition at 10 µM [44] of the same compound?
A: 15.8%

Q: What about the inhibition at 10 µM [45] of the same compound?
A: 40.4%

Q: And the melting point?
A: 198 to 200 °C
